# Measurements as given in patent publication US11780868B1, “Homoleptic metal coordination complexes as antifungal agents” (King Abdulaziz University, priority 2023, dated 2023).
# How the values were obtained:
# Type in all cases: cell-based, Candida albicans
# C. albicans 5112 [1] = experiment: Broth microdilution MIC/MFC (CLSI M27-A4); details: C. albicans 5112 (Flz resistant)
# Method: (§1) In this work, nine strains of C. albicans procured from Charlotte Maxeke Johannesburg Academic Hospital under ethical clearance number M000402 were employed (Table 1). All the C. albicans strains were preserved at −70° C. deep freezer in 50% (v/v) anhydrous glycerol (Sigma-Aldrich St. Louis, MO, U.S.A.). For conducting experiments, cultures were revived in Sabouraud Dextrose broth (SDB; Merck, Germany) at 37° C. and 120 rpm for 24 h. Additionally, the RPMI 1640 medium and MOPS (Sigma-Aldrich, USA) were prepared as described by the Clinical and Laboratory Standards Institute (CLSI).
# (§2) The activity of C1 against Candida species (n=9) was first estimated in terms of minimum inhibitory concentration (MIC) and minimum fungicidal concentration (MFC). […] Briefly, stock solutions of Flz (used as reference; Sigma-Aldrich St. Louis, MO, U.S.A.) and the synthesized compound was prepared in 1% dimethyl sulfoxide (DMSO; Sigma-Aldrich St. Louis, MO, U.S.A.) and the test concentrations were formulated in RPMI 1640-MOPS medium. A two-fold dilution of the compound (1250-0.61 μg/mL) and reference drug (128-0.062 μg/mL) was prepared in 96 well plates which were then seeded with C. albicans inoculum (1×10^6 cells/mL) and incubated at 37° C. for 24 h. In every set of experiments, sterility control, 1% DMSO as negative control and growth control were included. Growth was quantified by reading the optical density at 620 nm in a UV-1800 SHIMADZU spectrophotometer (Shimadzu Corporation, Japan). The MIC was determined as the lowest concentration that inhibited the growth of Candida strains. To determine MFC, each well without visible growth was subcultured onto the SDA plates for 24 hours at 37° C. The lowest concentration killing ≥99.9% of Candida was taken as the MFC value of the test compound.
# C. albicans 4085 = experiment: Broth microdilution MIC/MFC (CLSI M27-A4); details: C. albicans 4085 (Flz resistant)
# Method: as §1, §2
# C. albicans 4180 = experiment: Broth microdilution MIC/MFC (CLSI M27-A4); details: C. albicans 4180 (Flz sensitive)
# Method: as §1, §2
# C. albicans 4554 = experiment: Broth microdilution MIC/MFC (CLSI M27-A4); details: C. albicans 4554 (Flz sensitive)
# Method: as §1, §2
# C. albicans SC5314 = experiment: Broth microdilution MIC/MFC (CLSI M27-A4); details: C. albicans SC5314 (control)
# Method: as §1, §2
# C. albicans 4175 = experiment: Broth microdilution MIC/MFC (CLSI M27-A4); details: C. albicans 4175 (Flz sensitive)
# Method: as §1, §2
# C. albicans 4106 = experiment: Broth microdilution MIC/MFC (CLSI M27-A4); details: C. albicans 4106 (Flz resistant)
# Method: as §1, §2
# C. albicans 4251 [2] = experiment: Broth microdilution MIC/MFC (CLSI M27-A4); details: C. albicans 4251 (Flz sensitive)
# Method: as §1, §2
# C. albicans 4324 = experiment: Broth microdilution MIC/MFC (CLSI M27-A4); details: C. albicans 4324 (Flz resistant)
# Method: as §1, §2
# [3] = system: Flz resistant strains of C. albicans; experiment: Broth microdilution MIC/MFC, range over strains
# Method: as §1
# The activity of C1 against Candida species (n=9) was first estimated in terms of minimum inhibitory concentration (MIC) and minimum fungicidal concentration (MFC). […] Briefly, stock solutions of Flz (used as reference; Sigma-Aldrich St. Louis, MO, U.S.A.) and the synthesized compound was prepared in 1% dimethyl sulfoxide (DMSO; Sigma-Aldrich St. Louis, MO, U.S.A.) and the test concentrations were formulated in RPMI 1640-MOPS medium. […] Growth was quantified by reading the optical density at 620 nm in a UV-1800 SHIMADZU spectrophotometer (Shimadzu Corporation, Japan). The MIC was determined as the lowest concentration that inhibited the growth of Candida strains. […]
# C. albicans 5112 [4] = experiment: Cell count and viability assay (Muse cell analyser); details: C. albicans 5112 (Flz resistant), C1 at MFC, 24 h; untreated 86.8%
# Method: (§3) Quantification of Live/Dead C. albicans cells in response to C1 was carried out. The actual count of viable and dead cells of C. albicans by treatment of C1 was monitored by Cell Count and Viability assay kit. An inoculum (1×10^6 cells/mL) of both Flz sensitive (C. albicans 4251) and resistant (C. albicans 5112) C. albicans strains was prepared followed by treatment with various concentrations of C1 (0.5×MIC, 1×MIC and MFC) for 24 h at 37° C. and 150 rpm. For the negative control, only inoculum treated with 1% DMSO was used and for the positive control, hydrogen peroxide (10 mM) was used in a 1:1 ratio with the inoculum. Following incubation, the cells were then washed in PBS and centrifuged at 4000 rpm for 5 minutes at 4° C. and the final pellet was resuspended in PBS. The Cell Count and Viability assay samples were prepared by mixing 190 μL of Luminex Cell Viability Dilution Buffer and 10 μL of the sample in a 1.5 mL Eppendorf tube and incubated in the dark for 5 min at room temperature. All samples were analysed by a Guava® Muse® Cell Analyser (Luminex A DiaSorin Company, USA).
# C. albicans 4251 [5] = experiment: as above; details: C. albicans 4251 (Flz susceptible), C1 at MFC, 24 h; untreated 90.9%
# Method: as §3
# C. albicans 5112 [6] = experiment: Cell cycle analysis (Muse cell analyser); details: 4 h
# Method: (§4) The effect of C1 on the cell cycle of C. albicans 4251 and C. albicans 5112 was determined using Cell Cycle kit MCH100106 in a Guava® Muse® Cell Analyser according to the manufacturer's instructions. The cells of the C. albicans (1×10^6 cells/mL) were exposed to C1 for 4 h at different concentrations (0.5×MIC and 1×MIC). Each sample was rinsed with fresh PBS after exposure, and the pellet was fixed in 1 mL of 70% ice-cold ethanol (Sigma Aldrich Co., USA). The Cell Cycle assay was prepared by mixing the 100 μL of Luminex® Cell Cycle dye and 100 μL of the prewashed fixed cells and incubated in the dark for 30 minutes at room temperature. All samples were analysed by a Guava® Muse® Cell Analyser (Luminex® A DiaSorin Company, USA). During the experiment, both the negative (without treatment) and positive control (10 mM H2O2 treated) were used.
# C. albicans 4251 [7] = experiment: Cell cycle analysis (Muse cell analyser); details: 4 h
# Method: as §4
smiles,measurement,setting,value
"Brc1ccc([O][Co][O]c2ccc(Br)cc2C=Nc2ccc3c(c2)OCCO3)c(C=Nc2ccc3c(c2)OCCO3)c1 [Complex C1, [Co(L)2]]",Median MIC,"C. albicans 5112 [1]; 37° C., 24 h",19.53 µg/mL
same,Median MFC,C. albicans 5112 [1]; killing ≥99.9%,78.12 µg/mL
same,Median MIC,"C. albicans 4085; 37° C., 24 h",9.76 µg/mL
same,Median MFC,C. albicans 4085; killing ≥99.9%,19.53 µg/mL
same,Median MIC,"C. albicans 4180; 37° C., 24 h",2.44 µg/mL
same,Median MFC,C. albicans 4180; killing ≥99.9%,4.88 µg/mL
same,Median MIC,"C. albicans 4554; 37° C., 24 h",2.44 µg/mL
same,Median MFC,C. albicans 4554; killing ≥99.9%,4.88 µg/mL
same,Median MIC,"C. albicans SC5314; 37° C., 24 h",2.44 µg/mL
same,Median MFC,C. albicans SC5314; killing ≥99.9%,4.88 µg/mL
same,Median MIC,"C. albicans 4175; 37° C., 24 h",1.22 µg/mL
same,Median MFC,C. albicans 4175; killing ≥99.9%,2.44 µg/mL
same,Median MIC,"C. albicans 4106; 37° C., 24 h",9.76 µg/mL
same,Median MFC,C. albicans 4106; killing ≥99.9%,19.53 µg/mL
same,Median MIC,"C. albicans 4251 [2]; 37° C., 24 h",4.88 µg/mL
same,Median MFC,C. albicans 4251 [2]; killing ≥99.9%,9.76 µg/mL
same,Median MIC,"C. albicans 4324; 37° C., 24 h",9.76 µg/mL
same,Median MFC,C. albicans 4324; killing ≥99.9%,19.53 µg/mL
same,MIC value range,[3],9.76 to 19.53 µg/mL
same,live cells,C. albicans 5112 [4],8.4%
same,live cells,C. albicans 4251 [5],4.3%
same,cells in G0/G1 phase,"C. albicans 5112 [6]; C. albicans 5112 (Flz resistant), 0.5×MIC",50.8%
same,cells in G0/G1 phase,"C. albicans 5112 [6]; C. albicans 5112, 1×MIC",94.1%
same,cells in G0/G1 phase,"C. albicans 4251 [7]; C. albicans 4251 (Flz sensitive), 0.5×MIC",62%
same,cells in G0/G1 phase,"C. albicans 4251 [7]; C. albicans 4251, 1×MIC",96.55%
